Reference: patent US20110065756A1, “METHODS AND COMPOSITIONS FOR TREATMENT OF OBESITY-RELATED DISEASES” (priority 2009, published 2011)

Assays:
[1] = clinical use; cited from earlier work
[2] = Rosiglitazone treatment of diet-induced obese mice: body weight, fasting plasma glucose and insulin, IPGTT; assay type: in vivo; details: obese C57BL/6J mice, 10 mg/kg/day by gavage, vs vehicle
Method: Ten adult (6 week-old) male C57BL/6J mice were purchased from the Jackson Laboratory. Mice were housed in a pathogen-free barrier facility (12 h light/12 h dark cycle). […] Mice were weighed every 4 weeks. After 12 weeks blood was collected after a 6 hour fast and plasma glucose levels were analyzed using the Accu-Check glucose meter. Subsequently, mice were treated with rosiglitazone (10 mg/kg/day in 1% carboxymethylcellulose in water) or vehicle by gavaging for 10 days. On day 10 the animals were subjected to an intraperitoneal glucose tolerance test (IPGTT) after a 16 hr overnight fast. Plasma glucose levels were determined at 0, 15, 30, 60 and 120 min using an Accu-Check glucose meter; at each time point 10 μl blood was collected in EDTA-coated tubes (Microvette CB300, Sarstedt, Newton, N.C.) for determination of insulin levels using an ELISA specific for mouse insulin (Alpco Diagnostics, Salem, N.H.). After the IPGTT, mice received a final treatment with rosiglitazone or vehicle (day 11) and were euthanized the next day (day 12) after a 6 hour fast under anaesthesia with isoflurane (Baxter). The epididymal fat pads, subcutaneous fat pads, liver and kidneys were harvested and stored at −80° C. for further analysis.
Results are expressed as mean±SEM. […]

[3] = RECORD, cited from earlier work

| Structure (SMILES) | incidence of hepatitis and potential liver failure [1] | body weight [2] | cardiovascular death, myocardial infarction, or stroke ([3]; 5-7 years follow-up, vs active control group) | upper and distal lower limb fracture rates ([3]; particularly in women) | heart failure that caused either hospital admission or death ([3]; rosiglitazone group (29 in active control group)) [patients] | risk difference per 1000 person-years for heart failure ([3]; vs active control, interval 1.1-4.1) | hazard ratio [HR] for heart failure ([3]; vs active control, interval 1.35-3.27) |
| --- | --- | --- | --- | --- | --- | --- | --- |
| CCc1ccc(CCOc2ccc(CC3SC(=O)NC3=O)cc2)nc1 (centres unmarked) [pioglitazone] | have not shown higher incidence | – | – | – | – | – | – |
| CN(CCOc1ccc(CC2SC(=O)NC2=O)cc1)c1ccccn1 (centres unmarked) [rosiglitazone] | have not shown higher incidence | did not influence weight | No difference was observed | increased | 61 | 2.6 | 2.10 |
